Laboratory results published in publication PMC4052546 (Pharmaceuticals, 2011).
Read-outs that look alike come from different tables or passages of the source.

What was measured:
[1] = cited from earlier work
[2] = Pharmacokinetics of AS and DHA in rat plasma after single and multiple intravenous AS injections (automated blood sampler, LC-MS/MS); type: in vivo, Sprague-Dawley rats; conditions: for Cmax / MRT / Tmax / clearance / AUC(0-t) / AUC / half-life / average plasma concentration over 0–72 h (Cav = AUC0–72 h/72): male, Sprague-Dawley, rat, plasma, iv; for AUC(0-t): read-out: AUC0–3 h; for AUC: read-out: AUCinfininty;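 on all read-outs here: blood drawn through a jugular vein catheter by an automated sampling system, plasma drug levels measured by LC-MS/MS with positive electrospray ionization against standard curves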
Description: The Culex ABS is a blood sampling and metabolism monitoring machine, which is controlled by its own internal computer. We were successful in evaluating PK for long-term periods by using this system. After jugular vein cannulation, study animals were individually placed in the system, which allowed for a micro-pump to infuse heparinized-saline (10 unit heparin/mL saline) at a rate of 1-2 μL/min to prevent coagulation within the catheter. Culex samples were obtained with precise blood volumes from the study animals and the total volume taken was less than 6% per day and 14% during the entire study period. Blood samples were maintained at 3 °C using Culex's temperature-controlled fractional collector. Plasma was separated from the blood samples and processed for drug extraction.
(§1) Three samples were collected during each phase of absorption, distribution, or elimination for full PK analysis on the first and last dosing days following intravenous bonus injection. Additionally, trough levels (pre-dose) samples were collected in between each dose to follow drug accumulation and a series PK approach (18 samples per animal) was used. Thus, each animal was dosed and plasma samples were obtained for up to three days. A total of 18 (0, 5, 15, 30, 45 min, 1, 2, 3, 6, 24.25, 48.167, 48.25, 48.5, 48.75, 49, 50, 51, and 54 h) samples were collected into cooled vials. 50 μL of blood per sample was collected pre-dosing and after dosing and 100 μL per sample was taken from 0.08 h to 56 h after dosing. During collection, blood samples were added into the vials, which contained dried heparin (50 units) on the bottom of each vial. Thus, a total blood volume of 1.75 mL was obtained from each rat during the three day treatment period (0.85 mL of blood on day 0, 0.1 mL on day 1, and 0.9 mL on day 2), which is 9.3% of the animals total blood volume. Subjects for replicated crossover design were followed FDA recommendation [22] with a 2 week wash out period. During wash-out period, if the catheter was blocked up by any reasons the jugular vein tubes were infused or replaced.
The samples were vortexed vigorously (set at 10 or max setting) for 8–10 sec followed by a 10,000 × g centrifugation at 4 °C for 10 min. Aliquots (approximately 250 μL ea) of the undisturbed supernatants were transferred into a 96-well plate for LC-MS/MS analyses. […] Drugs were chromatographically separated using an acetonitrile/ammonium acetate gradient through a Waters XTerra C18 column (2.1 × 50 mm, 3.5 μm particle size) and corresponding pre-column. Quantification was done using the most abundant daughter ions following positive electrospray ionization. Chromatograms were analyzed using Xcalibur mass spectrometry software. The responses-concentrations standard curves were fitted and weighted.
The area under the curve (AUC) was determined by the linear trapezoidal rule with extrapolation to infinity based on the concentration of the last time point divided by the terminal rate constant. The bioequivalence (BE) evaluation of the two formulations were analyzed by using BE software (WinNonlin 5.2, Pharsight Co. Mountain View, CA. USA) in rats for a NDA application.

[3] = Hematology and recovery study after multiple intravenous AS; type: in vivo, rats
Description: At 24 and 96 h after the final dose of Chinese and WRAIR intravenous AS, male and female animals were anesthetized by isoflurane inhalation anesthesia (Abbott Labs, North Chicago, IL, USA) delivered by a small-animal anesthesia system (Euthanex Corp, Palmer Park, PA, USA). Each animal was initially placed in a chamber primed with 5% isoflurane, and upon induction, maintained in a non-rebreathing mask at 2% isoflurane delivered with […]. […] One mL of the blood sample was placed in K3 EDTA tubes (Beckton Dickinson, Franklin Lakes, NJ, USA) for CBC analysis using the ABX Pentra 60 hematology analyzer (ABX diagnostics, Irvine, CA, USA). Another 0.7 mL of blood was placed in serum separator tubes (Becton Dickinson, Franklin Lakes, NJ, USA) for biochemistry analysis using commercial assay kits on the Vitros 250 Chemistry analyzer (Johnson & Johnson, Rochester, NY, USA). Reticulocyte analysis was performed utilizing light microscopy. After sample collection, rats were euthanized by cervical dislocation.

parasitemia = tested on: parasitemia; design: method as in earlier work; conditions: intravenous AS, clinical trials; cited from earlier work
[4] = rat, in vivo
Description: An automated blood sampler (Culex ABS, Bioanalytical Systems, Inc. West Lafayette, IN) was used for rat blood sample collection.
as §1
The area under the curve (AUC) was determined by the linear trapezoidal rule with extrapolation to infinity based on the concentration of the last time point divided by the terminal rate constant.

malaria parasites = conditions: incubation in vitro; cited from earlier work
[5] = Chinese formulation (AS/NaHCO3), 20 mg/kg i.v. daily for 3 days, male rats, Period 1, Day 3
[6] = Chinese formulation (AS/NaHCO3), 20 mg/kg i.v. daily for 3 days, male rats, Period 2, Day 3
[7] = WRAIR formulation (AS/0.3M PBS Buffer), 20 mg/kg i.v. daily for 3 days, male rats, Period 2, Day 3
[8] = 20 mg/kg, Chinese formulation (AS/NaHCO3), 20 mg/kg i.v. daily for 3 days, male rats, Period 1, Day 1
[9] = 20 mg/kg, Chinese formulation (AS/NaHCO3), 20 mg/kg i.v. daily for 3 days, male rats, Period 1, Day 3
[10] = 20 mg/kg, Chinese formulation (AS/NaHCO3), 20 mg/kg i.v. daily for 3 days, male rats, Period 2, Day 1
[11] = 20 mg/kg, Chinese formulation (AS/NaHCO3), 20 mg/kg i.v. daily for 3 days, male rats, Period 2, Day 3
[12] = 20 mg/kg, WRAIR formulation (AS/0.3M PBS Buffer), 20 mg/kg i.v. daily for 3 days, male rats, Period 1, Day 1
[13] = 20 mg/kg, WRAIR formulation (AS/0.3M PBS Buffer), 20 mg/kg i.v. daily for 3 days, male rats, Period 1, Day 3
[14] = 20 mg/kg, WRAIR formulation (AS/0.3M PBS Buffer), 20 mg/kg i.v. daily for 3 days, male rats, Period 2, Day 1
[15] = 20 mg/kg, WRAIR formulation (AS/0.3M PBS Buffer), 20 mg/kg i.v. daily for 3 days, male rats, Period 2, Day 3
[16] = male, Sprague-Dawley, iv, 20 mg/kg, 1 day

AUC0–3 h ([2]; Chinese formulation (AS/NaHCO3), 20 mg/kg i.v. daily for 3 days, male rats, Period 1, Day 1): 867.5 ± 136.7 ng·h/mL | AUC0–3 h [2, 5]: 614.2 ± 191.8 ng·h/mL | Cmin [2, 5]: 4.35 ± 2.54 ng/mL | AUC0–3 h ([2]; Chinese formulation (AS/NaHCO3), 20 mg/kg i.v. daily for 3 days, male rats, Period 2, Day 1): 932.6 ± 144.2 ng·h/mL | AUC0–3 h [2, 6]: 665.4 ± 236.3 ng·h/mL | Cmin [2, 6]: 3.35 ± 2.11 ng/mL | Degree of Fluctuation = 100% × (Cmax − Cmin)/Cav [2, 6]: 1192 ± 219% | time at which Cmax was measured ([2]; Chinese formulation, 20 mg/kg i.v., rats, period 1, day 1): 5 min | time at which Cmax was measured ([2]; Chinese formulation, 20 mg/kg i.v., rats, period 2, day 1): 5 min | time at which Cmax was observed ([2]; Chinese formulation, 20 mg/kg i.v., rats, period 2, day 3): 5 min | AUC0–3 h ([2]; WRAIR formulation (AS/0.3M PBS Buffer), 20 mg/kg i.v. daily for 3 days, male rats, Period 1, Day 1, 20 mg/kg): 879.4 ± 167.4 ng·h/mL | Cmin ([2]; WRAIR formulation (AS/0.3M PBS Buffer), 20 mg/kg i.v. daily for 3 days, male rats, Period 1, Day 3): 3.56 ± 0.85 ng/mL | AUC0–3 h ([2]; WRAIR formulation (AS/0.3M PBS Buffer), 20 mg/kg i.v. daily for 3 days, male rats, Period 1, Day 3, 20 mg/kg): 611.1 ± 162.1 ng·h/mL | Cmin [2, 7]: 3.87 ± 1.57 ng/mL | Degree of Fluctuation = 100% X (Cmax − Cmin)/Cav [2, 7]: 1218 ± 172% | AUC0–3 h ([2]; WRAIR formulation (AS/0.3M PBS Buffer), 20 mg/kg i.v. daily for 3 days, male rats, Period 2, Day 3, 20 mg/kg): 669.7 ± 159.3 ng·h/mL | time at which Cmax was measured ([2]; WRAIR formulation, 20 mg/kg i.v., rats, period 1, day 1): 5 min | AS concentration on day 3 compared to day 1 ([2]; i.v. treatments in rats): one-third lower | Cmax [2, 8]: 4300 ng/mL | MRT [2, 8]: 15.6 ± 2.4 min | Tmax [2, 8]: 4.98 min | clearance [2, 8]: 380 ± 54.2 mL/min/kg | AUC(0-t) [2, 8]: 868 ng·h/mL | AUC [2, 8]: 872 ± 138 ng·h/mL | half-life ([2]; 20 mg/kg, Chinese formulation (AS/NaHCO3), 20 mg/kg i.v. daily for 3 days, male rats, Period 1, Day 1, read-out: t1/2 distribution (converted)): 3.6 ± 0.6 min | half-life ([2]; 20 mg/kg, Chinese formulation (AS/NaHCO3), 20 mg/kg i.v. daily for 3 days, male rats, Period 1, Day 1, read-out: t1/2 elimination (converted)): 24 ± 4.2 min | Cmax [2, 9]: 2460 ng/mL | MRT [2, 9]: 17.4 ± 6 min | Tmax [2, 9]: 4.98 min | average plasma concentration over 0–72 h (Cav = AUC0–72 h/72) [2, 9]: 204 ng·h/mL | clearance [2, 9]: 570 ± 170 mL/min/kg | AUC(0-t) [2, 9]: 614 ng·h/mL | AUC [2, 9]: 617 ± 193 ng·h/mL | half-life ([2]; 20 mg/kg, Chinese formulation (AS/NaHCO3), 20 mg/kg i.v. daily for 3 days, male rats, Period 1, Day 3, read-out: t1/2 distribution (converted)): 6 ± 1.8 min | half-life ([2]; 20 mg/kg, Chinese formulation (AS/NaHCO3), 20 mg/kg i.v. daily for 3 days, male rats, Period 1, Day 3, read-out: t1/2 elimination (converted)): 24.6 ± 6.6 min | Cmax [2, 10]: 4140 ng/mL | MRT [2, 10]: 15.6 ± 3 min | Tmax [2, 10]: 4.98 min | clearance [2, 10]: 360 ± 56.2 mL/min/kg | AUC(0-t) [2, 10]: 932 ng·h/mL | AUC [2, 10]: 935 ± 144 ng·h/mL | half-life ([2]; 20 mg/kg, Chinese formulation (AS/NaHCO3), 20 mg/kg i.v. daily for 3 days, male rats, Period 2, Day 1, read-out: t1/2 distribution (converted)): 4.8 ± 1.8 min | half-life ([2]; 20 mg/kg, Chinese formulation (AS/NaHCO3), 20 mg/kg i.v. daily for 3 days, male rats, Period 2, Day 1, read-out: t1/2 elimination (converted)): 25.8 ± 4.2 min | Cmax [2, 11]: 2540 ng/mL | MRT [2, 11]: 15.6 ± 5.4 min | Tmax [2, 11]: 4.98 min | clearance [2, 11]: 562 ± 240 mL/min/kg | AUC(0-t) [2, 11]: 665 ng·h/mL | AUC [2, 11]: 667 ± 238 ng·h/mL | half-life ([2]; 20 mg/kg, Chinese formulation (AS/NaHCO3), 20 mg/kg i.v. daily for 3 days, male rats, Period 2, Day 3, read-out: t1/2 distribution (converted)): 7.2 ± 1.8 min | half-life ([2]; 20 mg/kg, Chinese formulation (AS/NaHCO3), 20 mg/kg i.v. daily for 3 days, male rats, Period 2, Day 3, read-out: t1/2 elimination (converted)): 23.4 ± 7.8 min | Cmax [2, 12]: 4030 ng/mL | MRT [2, 12]: 18 ± 3.6 min | Tmax [2, 12]: 4.98 min | clearance [2, 12]: 378 ± 67.2 mL/min/kg | AUC(0-t) [2, 12]: 879 ng·h/mL | AUC [2, 12]: 882 ± 167 ng·h/mL | half-life ([2]; 20 mg/kg, WRAIR formulation (AS/0.3M PBS Buffer), 20 mg/kg i.v. daily for 3 days, male rats, Period 1, Day 1, read-out: t1/2 distribution (converted)): 4.8 ± 1.2 min | half-life ([2]; 20 mg/kg, WRAIR formulation (AS/0.3M PBS Buffer), 20 mg/kg i.v. daily for 3 days, male rats, Period 1, Day 1, read-out: t1/2 elimination (converted)): 24.6 ± 1.8 min | Cmax [2, 13]: 2430 ng/mL | MRT [2, 13]: 16.2 ± 5.4 min | Tmax [2, 13]: 4.98 min | average plasma concentration over 0–72 h (Cav = AUC0–72 h/72) [2, 13]: 204 ng·h/mL | clearance [2, 13]: 559 ± 118 mL/min/kg | AUC(0-t) [2, 13]: 611 ng·h/mL | AUC [2, 13]: 613 ± 163 ng·h/mL | half-life ([2]; 20 mg/kg, WRAIR formulation (AS/0.3M PBS Buffer), 20 mg/kg i.v. daily for 3 days, male rats, Period 1, Day 3, read-out: t1/2 distribution (converted)): 6 ± 2.4 min | half-life ([2]; 20 mg/kg, WRAIR formulation (AS/0.3M PBS Buffer), 20 mg/kg i.v. daily for 3 days, male rats, Period 1, Day 3, read-out: t1/2 elimination (converted)): 28.2 ± 6 min | Cmax [2, 14]: 4210 ng/mL | MRT [2, 14]: 16.8 ± 2.4 min | Tmax [2, 14]: 4.98 min | clearance [2, 14]: 387 ± 52.1 mL/min/kg | half-life ([2]; 20 mg/kg, WRAIR formulation (AS/0.3M PBS Buffer), 20 mg/kg i.v. daily for 3 days, male rats, Period 2, Day 1, read-out: t1/2 distribution (converted)): 4.8 ± 0.6 min | half-life ([2]; 20 mg/kg, WRAIR formulation (AS/0.3M PBS Buffer), 20 mg/kg i.v. daily for 3 days, male rats, Period 2, Day 1, read-out: t1/2 elimination (converted)): 26.4 ± 3.6 min | Cmax [2, 15]: 2710 ng/mL | MRT [2, 15]: 16.2 ± 3.6 min | Tmax [2, 15]: 4.98 min | clearance [2, 15]: 517 ± 162 mL/min/kg | AUC(0-t) [2, 15]: 670 ng·h/mL | AUC [2, 15]: 673 ± 160 ng·h/mL | half-life ([2]; 20 mg/kg, WRAIR formulation (AS/0.3M PBS Buffer), 20 mg/kg i.v. daily for 3 days, male rats, Period 2, Day 3, read-out: t1/2 distribution (converted)): 8.4 ± 1.2 min | half-life ([2]; 20 mg/kg, WRAIR formulation (AS/0.3M PBS Buffer), 20 mg/kg i.v. daily for 3 days, male rats, Period 2, Day 3, read-out: t1/2 elimination (converted)): 32.4 ± 11.4 min | total reticulocyte counts ([3]; 20 mg/kg AS intravenously, male and female rats, both formulations): significant reductions | all hematological parameters after recovery period ([3]; 20 mg/kg AS, 3 days post last dosing): reverted to normal | 90% CI for T/R, Lower, AUCD1 [4, 16]: 88.72% | 90% CI for T/R, Upper, AUCD1 [4, 16]: 111.28% | BE (bioequivalence), AUCD1 [4]: Yes | BE (bioequivalence), Cmax D1 [4]: Yes | 90% CI between the two intravenous formulations, AUC0–3 h ([4]; iv): 88.72–111.28% | 90% CI for the difference between the two i.v. formulations, AUC1–3D ([4]; iv): 87.65–112.35% | 90% CI of the difference between the two intravenous formulations, AUCD3 ([4]; iv): 82.30–117.69%
Compound: C[C@H]1[C@H](OC(=O)CCC(=O)O)O[C@@H]2O[C@@]3(C)CC[C@H]4[C@H](C)CC[C@@H]1[C@@]24OO3 [AS, artesunate]
elimination half-life (t1/2) [1]: 2 to 18 min | Cmax and AUC values on the last dose day compared to the first day ([1]; multiple oral treatments in malaria patients and healthy subjects): reduced by one-third to one-seventh | time for parasitemia to fall by half (parasitemia): 3.18 h | time to completely inhibit parasite growth (malaria parasites): 2 to 4 h
